Our source for the MIC values is paper PMC9822072, “Synthesis and Structure–Activity Relationship of 2,6-Disubstituted Thiosemicarbazone Derivatives of Pyridine as Potential Antituberculosis Agents” (Materials, 2023).

Values after ≈ are worked out from the molar mass of the structure shown.

A word on the MIC: it is the lowest concentration that inhibits growth of the organism.

The subject of this experiment is M. tuberculosis Spec. 210 (resistant strain isolated from TB patients). The experiment can be described thus: Tuberculostatic activity, twofold serial microdilution with Alamar Blue. To be noted: Mycobacterium tuberculosis, 504 h, read-out: MIC Spec. 210. In kind it is cell-based. (In broth dilution the organism is exposed to a series of concentrations in liquid medium.)

Regarding `NC(=NNC(=S)N1CCCC1)c1cccc(N2CCCC2)n1` [Compound 5, 6-(Pyrrolidin-1-Yl)-N’-(Pyrrolidine-1-Carbonothioyl)Picolinohydrazonamide], the MIC came to 1 µg/mL (≈ 3.14 µM).
As for `NC(=NNC(=S)N1CCCC1)c1cccc(Oc2ccccc2)n1` [Compound 9, 6-Phenoxy-N’-(Pyrrolidine-1-Carbonothioyl)Picolinohydrazonamide], the MIC amounted to 4 µg/mL (≈ 11.7 µM).
With `NC(=NNC(=S)N1CCOCC1)c1cccc(Oc2ccccc2)n1` [Compound 8, N’-(Morpholine-4-Carbonothioyl)-6-Phenoxypicolinohydrazonamide] the figure was 4 µg/mL (≈ 11.2 µM).
Under `NNC(=O)c1ccncc1` [INH, isoniazid, reference compound] stands 8 µg/mL (≈ 58.3 µM).
As for `NC(=NNC(=S)N1CCOCC1)c1cccc(N2CCCC2)n1` [Compound 4, N’-(Morpholine-4-Carbonothioyl)-6-(Pyrrolidin-1-Yl)Picolinohydrazonamide], the MIC was determined as 4 µg/mL (≈ 12 µM).
Take `NC(=NNC(=S)N1CCOCC1)c1cccc(N2CCCCC2)n1` [Compound 6, N’-(Morpholine-4-Carbonothioyl)-6-(Piperidin-1-Yl)Picolinohydrazonamide]: the MIC stood at 1 µg/mL (≈ 2.87 µM).
Regarding `NC(=NNC(=S)N1CCCC1)c1cccc(N2CCCCC2)n1` [Compound 7, 6-(Piperidin-1-Yl)-N’-(Pyrrolidine-1-Carbonothioyl)Picolinohydrazonamide], the MIC came out at 0.5 µg/mL (≈ 1.5 µM).
